≈ marks a conversion by molar mass, not a printed value.
Tests used:
MRSA 15187 = test: MIC, agar incorporation method; type: cell-based, Staphylococcus aureus; details: MRSA 15187; agar incorporation
From the text: (§1) The compounds of the invention display antibacterial activity when tested by the agar incorporation method. The following minimum inhibitory concentrations (μg/ml) were obtained for representative compounds of the invention which are given below in the following tables.
(§2) • 1) S.aureus ATCC 25923—Staphylococus aureus ATCC 25923 • 2) MRSA 15187—Methicillin Resistant Staphylococcus aureus • 3) Ent. faecalis ATCC 29212—Enterococcus faecalis ATCC 29212 • 4) Ent. faecium 6A—Enterococcus faecium 6A Van®, Cipro® • 5) Strep. pne. ATCC 6303—Streptococcus pneumoniae ATCC 6303 • 6) Strep. pyog. ATCC 19615—Streptococcus pyogenes • 7) S. epidermidis—Staphylococcus epidermidis ATCC 12228
(§3) Briefly, the compounds were dissolved in DMSO and doubling dilution of the compounds were incorporated into Meuller Hilton agar before solidification. Inoculum was prepared by suspending 4 to 5 colonies into 5 ml of normal saline solution and adjusting the turbidity to 0.5 Macfarland turbidity standard tables (1.5×10^8 CFU/ml), after appropriate dilutions, 10^4 CFU/spot was transfered into the surface of dried plate and incubated for 18 hours (24 hours for MRSN studies). The concentration showing no growth of the inoculated culture was recorded as the MIC. Appropriate ATCC standard strains were simultaneously tested and result recorded only when the MIC's against standard antibiotics were within the acceptable range.

S. aureus 25923 = test: MIC, agar incorporation method; type: cell-based, Staphylococcus aureus; details: S. aureus 25923; agar incorporation
From the text: as §1, §2, §3

VRE 6A = test: MIC, agar incorporation method; type: cell-based, Enterococcus faecium; details: VRE 6A; agar incorporation
From the text: as §1, §2, §3

S. pneum AB 34 = test: MIC, agar incorporation method; type: cell-based, Streptococcus pneumoniae; details: S. pneum AB 34; agar incorporation
Method: as §1, §3

MRSA 562 [1] = test: In vivo activity against MRSA 562 (ED50); design: species or system Staphylococcus aureus
E. faecalis 29212 = test: MIC, agar incorporation method; type: cell-based, Enterococcus faecalis; details: E. faecalis 29212; agar incorporation
From the text: as §1, §2, §3

MRSA 562 [2] = test: MIC, agar incorporation method; type: cell-based, Staphylococcus aureus; details: MRSA 562
Method: as §1, §3

MRSA 33 = test: MIC, agar incorporation method; type: cell-based, Staphylococcus aureus; details: MRSA 33; agar incorporation
Method: as §1, §3

S. pyogenes 19615 = test: MIC, agar incorporation method; type: cell-based, Streptococcus pyogenes; details: S. pyogenes 19615; agar incorporation
From the text: as §1, §2, §3

S. pneum 6303 = test: MIC, agar incorporation method; type: cell-based, Streptococcus pneumoniae; details: S. pneum 6303; agar incorporation
From the text: as §1, §2, §3

[3] = Changes in MIC under different conditions: Agar MIC; type: cell-based; details: strain not given
Method: as §1, §3

[4] = Changes in MIC under different conditions: Broth MIC; type: cell-based; details: strain not given
E. faecalis = test: Summary of in vitro activity (MIC) against E. faecalis; type: cell-based, Enterococcus faecalis; details: E. faecalis
Method: as §1, §3

S. pneumoniae = test: Summary of in vitro activity (MIC) against S. pneumoniae; type: cell-based, Streptococcus pneumoniae; details: S. pneumoniae
Method: as §1, §3

G+ve = test: Summary of in vitro activity (MIC) against G+ve bacteria; type: cell-based
Method: as §1, §3

S. aureus = test: Summary of in vitro activity (MIC) against S. aureus; type: cell-based, Staphylococcus aureus; details: S. aureus
Method: as §1, §3

SMILES	MIC (MRSA 15187) [µg/mL]	MIC (S. aureus 25923) [µg/mL]	MIC (VRE 6A) [µg/mL]	MIC (S. pneum AB 34) [µg/mL]	ED50 (mg/kg body weight) PO (MRSA 562 [1]) [mg/kg body weight]	MIC (E. faecalis 29212) [µg/mL]	MIC (MRSA 562 [2]; Table 5) [µg/mL]	MIC (MRSA 562 [2]; agar incorporation, Table 1) [µg/mL]	MIC (MRSA 33) [µg/mL]	MIC (S. pyogenes 19615) [µg/mL]	MIC (S. pneum 6303) [µg/mL]	also measured
CC(=O)NC[C@H]1CN(c2ccc(N3CCN(C(=O)C(=O)c4cccs4)CC3)c(F)c2)C(=O)O1 [Compound No. 07, (S)-N[[3-[3-Fluoro-4-[N-1[4-{2-(2-thienyl)dicarbonyl}]-piperazinyl]phenyl]2-oxo-5-oxazolidinyl]methyl]acetamide]	2 (≈ 4.21 µM)	2 (≈ 4.21 µM)	2 (≈ 4.21 µM)	2 (≈ 4.21 µM)	>25	2 (≈ 4.21 µM)	2 (≈ 4.21 µM)	2 (≈ 4.21 µM)	2 (≈ 4.21 µM)	0.5 (≈ 1.05 µM)	2 (≈ 4.21 µM)	
CC(=O)NC[C@H]1CN(c2ccc(N3CCN(Cc4ccc([N+](=O)[O-])o4)CC3)c(F)c2)C(=O)O1.Cl [Compound No. 16]	4	2	4	1		2			4	0.5	1	Agar MIC [3]: 2 µg/mL; Broth MIC +50% Sheep serum ([4]; +50% Sheep serum): 2 µg/mL; Broth MIC Normal MH broth ([4]; Normal MH broth): 2 µg/mL
CC(=O)NC[C@H]1CN(c2ccc(N3CCN(Cc4ccc(NC=O)o4)CC3)c(F)c2)C(=O)O1 [Compound No. 67]					>25		2 (≈ 4.35 µM)					
CC(=O)NC[C@H]1CN(c2ccc(N3CCN(Cc4ccc([N+](=O)[O-])o4)CC3)c(F)c2)C(=O)O1 [Compound No. 15, (S)-N-[[3-[3-fluoro-4-[N-1-[4-{2-furyl-(5-nitro)methyl}]piperazinyl]phenyl]-2-oxo-5-oxazolidinyl]methyl]acetamide]	2 (≈ 4.33 µM)	2 (≈ 4.33 µM)	1 (≈ 2.17 µM)	2 (≈ 4.33 µM)	4.33	2 (≈ 4.33 µM)	2 (≈ 4.33 µM)	2 (≈ 4.33 µM)	2 (≈ 4.33 µM)	1 (≈ 2.17 µM)	1 (≈ 2.17 µM)	Geometric Mean of in vitro activity (MIC) (E. faecalis): 1.6 µg/mL; MIC50 (E. faecalis; Number 7): 2 µg/mL (≈ 4.33 µM); MIC90 (E. faecalis; Number 7): 2 µg/mL (≈ 4.33 µM); Geometric Mean of in vitro activity (MIC) (S. pneumoniae): 1.04 µg/mL; MIC50 (S. pneumoniae; Number 19): 2 µg/mL (≈ 4.33 µM); MIC90 (S. pneumoniae; Number 19): 4 µg/mL (≈ 8.67 µM); MIC50 (G+ve; G+ve, Number 49): 1 µg/mL (≈ 2.17 µM); MIC90 (G+ve; G+ve, Number 49): 2 µg/mL (≈ 4.33 µM); Geometric Mean of in vitro activity (MIC) (G+ve; Gram +ve): 1.08 µg/mL; Geometric Mean of in vitro activity (MIC) (S. aureus): 1.63 µg/mL; MIC50 (S. aureus; Number 8): 2 µg/mL (≈ 4.33 µM); MIC90 (S. aureus; Number 8): 2 µg/mL (≈ 4.33 µM)
